One block for each compound: values may come before it.
What was measured:
liver organoids = assay: ROS live-cell imaging of liver organoids; format: cell-based, human
From the text: (§1) Phagocyte, lipids, ROS live-cell imaging. After being cultured in an ultra-low attachment 6 multi-well plate, 5-10 HLO were picked up and seeded in a Microslide 8 Well Glass Bottom plate (Ibidi, WI, USA) and subjected to live-cell staining. The following antibodies were used: pHrodo® Red S. aureus Bioparticles® Conjugate for Phagocyte activity (Thermo Fisher Scientific Inc.), BODIPY® 493/503 for lipids (Thermo Fisher Scientific Inc.), Di-8-ANEPPS for membrane (Thermo Fisher Scientific Inc.), and CellROX green reagent for ROS detection (Thermo Fisher Scientific Inc.). […] The final lipid droplet volume was calculated by IMARIS8 and normalized by each organoid size. Significance testing for lipid droplet volume and ROS production (%) was conducted by Student's t-test.

[1] = system: human liver organoid (HLO); assay: Lipids live-cell imaging (BODIPY, membrane dye) of FFA treated HLO; format: cell-based; conditions: for effectiveness in inducing lipid accumulation among FFAs (OA, LA, PA, SA): 800 μM, 3 days after FFA exposure, BODIPY
From the text: Currently, free fatty acids (FFA) are widely used as an initiating factor to establish an in vitro lipotoxic hepatocyte model; however, fat accumulation is the only phenotype (Kanuri and Bergheim, 2013). […] Given the presence of hepatocyte-, stellate- and Kupffer-like cells with lipid metabolism function-associated genes indicated by global transcriptome analysis, Applicant hypothesized that FFA exposure naturally triggers an inflammation response and resulting fibrotic response in HLO. To test this hypothesis, Applicant treated HLO for 3 to 5 days with FFA. […] To first compare the effect of multiple FFAs including oleic acid (OA, 18:1 n9), linoleic acid (LA, 18:2), palmitic acid (PA, 16:0), and stearic acid (SA, 18:0) on lipids accumulation, live-cell imaging was performed with lipid dye BODIPY at 3 days after the FFA exposure. […] Considering that OA triggers massive lipid accumulation, the concentration of OA was varied (0, 200, 400, and 800 μM) to trigger inflammatory reaction in sHLO. […] In addition to increase in lipid accumulation, the size of lipid droplets was enlarged (FIG. 4, B). Hepatocyte ballooning (enlargement) was one of the pathological grading indicators to determine the nonalcoholic steatohepatitis (NASH) activity (NAS scoring), which was confirmed in 800 μM OA treated sHLO by live imaging of cellular membrane (FIG., 4B). Triglycerides, a main constituent of lipids accumulated in the liver, were also detected in 800 μM treated sHLO, but not in untreated sHLO (FIG. 4, D). […] As FIG. 9 indicates, neither E-cad positive nor negative cells derived spheroids produced P3NP and IL-6 secreted production and overexpressed the gene expression of inflammatory markers.
as §1
LPS and FFA exposure and OCA and FGF19 treatment. 20-30 HLO, which had been isolated from Matrigel and washed by 1×PBS, were divided into each condition and cultured on an ultra-low attachment 6 multi-well plates (Corning). HLO were cultured with LPS (Sigma), OA (Sigma), LA (Sigma), SA (Sigma), or PA (Sigma) and collected at day 1 and 3 (for LPS HLO) and at day 3 and 5 (for OA) after the culture. To test the inhibitory effect of OCA (INT-747, MedChem Express, NJ, USA) and human FGF19 recombinant (Sigma) on HLO, 20-30 HLO were cultured in HCM media in the presence or absence of oleic acid (800 μM), and 1 μM OCA and 40 ng/ml FGF19 were added into 800 μM OA condition. HLO were collected at day 3 for lipids live-cell imaging and at day 5 for stiffness measurement.

[2] = system: human liver organoid (HLO); assay: Triglyceride assay; format: cell-based; conditions: 800 μM OA, 3 days
Experimental: Triglyceride assay. For quantitative determination of triglycerides, HLO were isolated from one Matrigel drop and divided into HCM media in the presence or absence of oleic acid (800 μM). They were cultured on an ultra-Low attachment 6 multi-well plate for three days. Quantitative estimation of hepatic triglyceride accumulation was performed by an enzymatic assay of triglyceride mass using the EnzyChrom Triglyceride assay kit (Bioassay Systems, CA, USA).

IL-6 = IL-6 ELISA of HLO culture supernatant; format: cell-based, human; conditions: 800 μM OA treated sHLO culture media
Experimental: (§2) Albumin, IL-6, and P3NP ELISA. To measure albumin secretion level of HLO, 200 μL of culture supernatant was collected from HLO embedded in Matrigel. For IL-6 and P3NP, 20-30 organoids were seeded and cultured on an ultra-low attachment multiwell plates 96 well plate (Corning). To define the exact number of organoids in each well and lastly normalize the secreted level for IL-6 and P3NP by the number, the organoids were captured on The KEYENCE BZ-X710 Fluorescence Microscope. The culture supernatants were collected at 24 hrs (for albumin), 96 hrs (for IL-6) and 120 hrs (P3NP) time points after the culture and stored at −80° C. until use. The supernatant was centrifuged at 1,500 rpm for 3 min and to pellet debris, and the resulting supernatant was assayed with Human Albumin ELISA Quantitation Set (Bethyl Laboratories, Inc., TX, USA), Human IL-6 ELISA Kit (Biolegend, CA, USA), and Human N-terminal procollagen III propeptide, PIIINP ELISA Kit (My BioSource, CA, USA) according to the manufacturer's instructions. Significance testing was conducted by Student's t-test.

IL-8 = assay: RT-qPCR of pro-inflammatory cytokine IL-8 in HLO; format: cell-based, human; conditions: 200 μM or 800 μM OA, normalized by 18S
Experimental: (§3) RNA isolation, RT-qPCR. RNA was isolated using the RNeasy mini kit (Qiagen, Hilden, Germany). Reverse transcription was carried out using the SuperScriptIII First-Strand Synthesis System for RT-PCR (Invitrogen, CA, USA) according to manufacturer's protocol. qPCR was carried out using TaqMan gene expression master mix (Applied Biosystems) on a QuantStudio 3 Real-Time PCR System (Thermo Fisher Scientific Inc.). All primers and probe information for each target gene was obtained from the Universal ProbeLibrary Assay Design Center (https://qpcr.probefinder.com/organism.jsp). Significance testing was conducted by Student's t-test.

TNF-alpha = assay: RT-qPCR of pro-inflammatory cytokine TNF-alpha in HLO; format: cell-based, human; conditions: 200 μM or 800 μM OA, normalized by 18S
Experimental: as §3

THP-1 = THP-1 cell migration assay with HLO conditioned media; format: cell-based, human; conditions: OA-treated sHLO conditioned media (400, 800 μM OA), 24 hrs in transwells
Experimental: THP-1 cell migration assay. THP-1 cell, which was gifted from T. Suzuki, was maintained in Advanced DMEM/F12 (Thermo Fisher Scientific Inc.) containing 10% FBS. THP-1 floating cells were collected, and 200,000 cells were added with serum-free Advanced DMEM/F12 to the membrane chamber of the CytoSelect™ 96-Well Cell Migration Assay (5 μm, Fluorometric Format; Cell Biolabs, CA, USA). 10-20 HLO were cultured in HCM media including 0, 400, 800 uM OA with an ultra-low attachment 96 multi-well plate (Corning) for three days. To define the exact number of organoids in each well and lastly normalize the final migrated cells by the number, the organoids were captured on The KEYENCE BZ-X710 Fluorescence Microscope. 150 μL of culture supernatant of HLO was collected and added to the feeder tray of the kit. The kit was incubated at 37° C. for 24 h in a 5% CO2 cell culture incubator. Cells that had migrated were counted using Countess II FL Automated Cell Counter (Thermo Fisher Scientific Inc.). Significance testing was conducted by Student's t-test.

P3NP = P3NP ELISA of HLO culture supernatant; format: cell-based, human; conditions: 800 μM OA, day 5
Experimental: as §2

[3] = system: human liver organoid (HLO); assay: HLO stiffness measurement by AFM; format: cell-based
From the text: Applicant's preliminary qualitative analysis of smooth muscle actin immunostaining indicates dose dependent fibrosis progression by OA exposure (FIG. 2, H, I, and J). To gain more quantitative insights in a screenable format, Applicant thus assessed in the living state whether HLO fibrosis could increase the stiffness in a dose dependent fashion using micro-indentation with Atomic Force Microscopy (AFM). […] The Emedian values were 1.2 kPa, 1.6 kPa, 2.4 kPa and 2.8 kPa for 0, 200, 400, and 800 μM OA-treated organoids, respectively. Furthermore, difference between 90th percentile and 10th percentile (ΔP90-10) was 3.2 kPa for untreated organoids and 7.0 kPa for 800 μM OA-treated organoids was observed.
HLO stiffness measurement by AFM. HLOs treated with […] were used for stiffness measurement with a AFM (NanoWizard IV, JPK Instruments, Germany). The AFM head with a silicon nitride cantilever (CSC37, k=0.3 N/m, MikroMasch, Bulgaria) was mounted on a fluorescence stereo microscope (M205 FA, Leica, Germany) coupled with a Z-axis piezo stage (JPK CellHesion module, JPK Instruments, Germany), which allows the indentation measurement up to the depth of ˜100 μm. As a substrate for organoids, a fibronectin-coated dish was used. The tissue culture dish (p=34 mm, TPP Techno Plastic Products, Switzerland) was first incubated with a 1 μg/mL fibronectin solution (Sigma)) at 4° C. for overnight. Then, the tissue culture dish was washed twice by distilled water and dried for 1 hour. Thereafter, HLOs incubated with […] were deposited to the fibronectin-coated dish and incubated for 1 hour at 37° C. The sample dish was then placed onto the AFM stage, and force-distance curves in a 14×14 matrix in a 25×25 μm square were measured from each HLO. Finally, Young's moduli (E, Pa) of HLO were determined by fitting the obtained force-distance curves with the modified Hertz model (Sneddon, 1965). Dunn-Holland-Wolfe test was performed for significance testings.

[4] = system: human liver organoid (HLO); assay: Masson trichrome stain of HLO; format: cell-based
Experimental: To further determine whether HLO progresses towards fibrosis-like condition, Applicant performed Masson trichrome stain on sHLO and cHLO. […] Moreover, ELISA of […] was also measured at day 5 of OA exposure. […] secretion was increased 2.8-fold in the culture media of 800 μM OA treated HLO when compared with the untreated (FIG. 4, J).

[5] = system: human iPSC-liver organoid; assay: RA-based liver organoid differentiation (organoid number, size, luminal structure); format: cell-based; conditions: 4 days RA
From the text: To elucidate whether RA signaling has an impact on determining the lineage differentiation towards stromal cells, Applicant established a liver organoid model from human iPSCs by transient induction of RA. Applicant initially differentiated iPSCs to foregut spheroids through definitive endoderm (DE) specification as previously described (Spence et al., 2011). The foregut spheroids were mixed with the attached cells grown in the same well, and the mixture was embedded in Matrigel. […] The number of organoids was increased 1.8-fold in RA treated wells compared to untreated and the size was increased 1.5-fold after RA treatment (FIG. 1, B, C, and D). […] Of note, albumin secretion was maintained more than 40 days after day 20 when albumin was first detected (data not shown).
HLO induction. At day 7, spheroids and attached cells are gently pipetted to be delaminated from dishes. They were centrifuged at 800 rpm for 3 minutes, embedded in a 100% Matrigel drop on the dishes in Advanced DMEM/F12 with B27, N2 and 2 uM retinoic acid (RA; Sigma, MO, USA) after removing supernatant, and cultured for 4 days. After RA treatment, spheroids embedded in the Matrigel drop were cultured in Hepatocytes Culture Medium (HCM; Lonza, MD, USA) with 10 ng/mL hepatocyte growth factor (HGF; PeproTech, NJ, USA), 0.1 uM Dexamethasone (Dex; Sigma) and 20 ng/mL Oncostatin M (OSM; R&D Systems). Cultures for HLO induction were maintained at 37° C. in 5% CO2 with 95% air and the medium was replaced every 2-3 days. To analyze HLO (day 20-30), organoids were isolated from Matrigel by scratching and pipetting.

[6] = system: human iPSC-liver organoid; assay: Albumin ELISA of organoid culture supernatant; format: cell-based; conditions: 4 days RA; supernatant collected in 24 hrs
Experimental: as §2

Compound: Oc1ccc(C=Cc2cc(O)cc(O)c2)cc1 [resveratrol]
effect on ROS production of liver organoids (liver organoids): No effectiveness

Compound: CCCCCCCCCCCCCCCCCC(=O)O [SA, stearic acid]
effectiveness in inducing lipid accumulation among FFAs (OA, LA, PA, SA) [1]: least effective

hepatocyte ballooning (enlargement) ([1]; 800 μM OA treated sHLO, live imaging of cellular membrane): confirmed
Compound: CCCCCCCC/C=C\CCCCCCCC(=O)O [OA, oleic acid]
lipid accumulation, increase in sHLO ([1]; 0, 200, 400, 800 μM OA, 3 days, dose dependent): up to 18 fold | effectiveness in inducing lipid accumulation among FFAs (OA, LA, PA, SA) [1]: most effective | size of lipid droplets ([1]; OA treated sHLO, 3 days): enlarged | triglycerides [2]: detected | IL-6 secretion compared to the untreated (IL-6): 2.2 fold | IL-8 gene expression increase (IL-8): 10 fold | TNF-alpha gene expression increase (TNF-alpha): 2 fold | THP-1 migration cells, increase (THP-1): up to 2 fold | P3NP secretion compared with the untreated (P3NP): 2.8 fold | Young's modulus, Emedian ([3]; 200 μM OA): 1.6 kPa | Young's modulus, Emedian ([3]; 400 μM OA): 2.4 kPa | Young's modulus, Emedian ([3]; 800 μM OA): 2.8 kPa | difference between 90th percentile and 10th percentile (ΔP90-10) of Young's modulus ([3]; 800 μM OA): 7.0 kPa | trichrome positive HLO ([4]; cHLO (OA 5 days)): significantly increased | trichrome positive HLO ([4]; sHLO (OA 3 days)): not observed

Compound: CC1=C(/C=C/C(C)=C/C=C/C(C)=C/C(=O)O)C(C)(C)CCC1 [RA, retinoic acid]
number of organoids, increase compared to untreated ([5]; day 20): 1.8 fold | organoid size, increase after treatment ([5]; day 20): 1.5 fold | organoids with internal luminal structure ([5]; day 25): 95% | albumin secretion [6]: 3.0 to 6.5 µg/mL

Source: patent US20200056157A1, “LIVER ORGANOID DISEASE MODELS AND METHODS OF MAKING AND USING SAME” (Children's Hospital Medical Center, priority 2016, published 2020)
